{
  "source": "patent US20070065850A1",
  "about": "“Method for diagnosis of heart failure” (OSAKA UNIVERSITY, priority 2005, published 2007)",
  "key": {"[1]": {"test_system": "cultured neonatal rat cardiac myocytes", "assay": "CHOP expression by real-time quantitative RT-PCR after treatment with pharmacological ER stress inducers", "format": "cell-based", "conditions": "for CHOP/GAPDH: cultured cardiac myocytes 48 hours after treatment with ER stress inducer, untreated 1.0, mean±SEM", "description": "Primary cultures of cardiac myocytes were prepared from neonatal rat hearts as described previously (13). All procedures were performed in accordance with the guidline of Osaka University School of Medicine with regard to animal care and the “Position of the American Heart Association on Research Animal Use.”\n(§1) RT-PCR of human and rat heart samples was performed according to the Omniscript Reverse Transcription handbook (QIAGEN Inc.). The human and rat primers and probes used for quantification of BNP, GRP78, CHOP, and GAPDH were all designed according to the manufacturer's protocol (Applied Biosystems, https://www.appliedbiosystems.com/catalog/). Real-time quantitative RT-PCR was performed with an ABI PRISM 7700 Sequence Detection System (Applied Biosystems) by the relative standard curve method. The target amount was determined from the relative standard curves constructed with serial dilutions of the control total RNA."}, "[2]": {"test_system": "neonatal rat cardiac myocytes", "assay": "Apoptotic cell assay (TUNEL)", "format": "cell-based", "description": "The terminal deoxynucleotidyl transferase-mediated dUTP nick end labeling (TUNEL) assay was performed as described previously (7). Forty eight hours after the treatment of neonatal rat cardiac myocytes with tunicamycin (Sigma-Aldrich), cells were subjected to TUNEL staining. The TUNEL-positive cardiac myocytes counted in DAPI-positive cardiac myocytes (n=100, 5 times) were expressed as a percentage.\n(§2) The inventors designed 3 different short interfering RNAs (siRNA) with 3′ dTdT overhangs to knock down CHOP mRNA (CHOP siRNA-1: 5′-CCUUCACUACUCUUGACCC-3′ (SEQ ID NO. 1), siRNA-2: 5′-GAUCAAGGAAGAACUAGGA-3′ (SEQ ID NO. 2), siRNA-3: 5′-GGAGCAGGAGAAUGAGAGG-3′(SEQ ID NO. 3) and ordered Dharmacon Inc. to synthesize them. After rat cardiac myocytes were isolated, they were incubated in Dulbecco's modified Eagle's medium (Invitrogen Corporation) Opti-MEM (Invitrogen Corporation), siRNA oligonucleotides (CHOP siRNA 1-3) (60 nM) and Optifect (Invitrogen Corporation) were added on the day of cardiac myocyte isolation. As a negative control, cells were transfected with siRNA against firefly luciferase from Photinus pyralis (GL2 siRNA) (15). Messenger RNA and protein levels of CHOP were measured 24 and 48 hrs after the transfection of CHOP siRNA, respectively."}, "CHOP": {"test_system": "CHOP", "assay": "CHOP protein level by immunoblotting after siRNA transfection", "format": "cell-based, rat", "conditions": "cardiac myocytes treated with tunicamycin; protein measured 48 hrs after transfection; actin internal control", "description": "Immunoblotting was performed as described previously (13). Primary antibodies targeting CHOP (sc-793) and actin (sc-1615) were purchased from Santa Cruz Biotechnology. Forty eight hours after the treatment of neonatal rat cardiac myocytes with tunicamycin (Sigma-Aldrich), cardiac myocytes were harvested.\nas §2"}, "cardiac myocytes": {"test_system": "cardiac myocytes", "assay": "MTT assay (cell viability)", "format": "cell-based, rat", "conditions": "tunicamycin for 48 hours", "description": "Cardiac myocytes were treated with tunicamycin for 48 hours, after which cell viability was assessed by MTT assay according to the manufacturer's instructions (Cell Counting Kit-8, Wako Pure Chemical Industries, Ltd.). The percentage of viable cells was determined by taking the value for untreated cells as 100%.\nas §2"}, "CHOP mRNA": {"test_system": "CHOP mRNA", "assay": "CHOP mRNA knockdown by siRNA transfection (RNA interference), real-time quantitative RT-PCR", "format": "cell-based, rat", "conditions": "siRNA 60 nM, mean±SEM", "description": "as §1\nas §2, with “As a negative control, cells were transfected with siRNA against firefly luciferase from Photinus pyralis (GL2 siRNA) (15).” left out, “respectively. […]” for “respectively.”"}},
  "note": "d = 2'-deoxy (DNA)",
  "data": [
    {"compound": "C[C@H]1CCC/C=C/[C@@H]2C[C@H](O)C[C@H]2[C@H](O)/C=C/C(=O)O1", "note": "[brefeldin A]", "values": [
      {"measurement": "CHOP/GAPDH", "setting": "[1]", "result": "8.1±0.7"}
    ]},
    {"compound": "C/C=C(/C)C(=O)O[C@H]1C(C)=C2[C@H]([C@@H]1OC(=O)CCCCCCC)[C@@](C)(OC(C)=O)C[C@H](OC(=O)CCC)[C@@]1(O)[C@H]2OC(=O)[C@@]1(C)O", "note": "[thapsigargin]", "values": [
      {"measurement": "CHOP/GAPDH", "setting": "[1]", "result": "19.0±0.3"}
    ]},
    {"compound": "CHOP siRNA-2: siRNA with 3′ dTdT overhangs to knock down CHOP mRNA: 5′-GAUCAAGGAAGAACUAGGA-3′ (SEQ ID NO. 2) (RNA, 3' dTdT, backbone not given here)", "values": [
      {"measurement": "Effect of siRNA on the tunicamycin-induced increase of TUNEL-positive cardiac myocytes", "setting": "[2]; tunicamycin 48 hours, siRNA 60 nM", "result": "attenuated"},
      {"measurement": "protein level of CHOP after transfection of siRNA", "setting": "CHOP", "result": "almost completely suppressed"},
      {"measurement": "Effect of siRNA on the tunicamycin-induced decrease of cell viability", "setting": "cardiac myocytes; siRNA 60 nM", "result": "attenuated"},
      {"measurement": "CHOP/GAPDH after transfection of siRNA, induction by brefeldin A", "setting": "CHOP mRNA; brefeldin A alone 8.1±0.7", "result": "2.2±0.8"},
      {"measurement": "CHOP/GAPDH after transfection of siRNA, induction by thapsigargin", "setting": "CHOP mRNA; thapsigargin alone 19.0±0.3", "result": "2.1±1.0"}
    ]},
    {"compound": "tunicamycin", "values": [
      {"measurement": "Number of TUNEL-positive cardiac myocytes", "setting": "[2]; 48 hours after treatment with tunicamycin, vs. no treatment", "result": "increased"},
      {"measurement": "Cell viability (MTT assay)", "setting": "cardiac myocytes; untreated cells as 100%", "result": "decreased"},
      {"measurement": "CHOP expression (real-time quantitative RT-PCR)", "setting": "[1]; cultured neonatal rat cardiac myocytes treated with tunicamycin, normalized for GAPDH, compared with 0 hour", "result": "increase"}
    ]}
  ]
}
